According to patent publication US8440813B2, “Antiviral nucleoside analogs” (BioCryst Pharmaceuticals, Inc., priority 2007, dated 2013):

Compound	melting point
CN(C)c1ncnn2c([C@@H]3O[C@H](CO)[C@@H](O)[C@@]3(C)O)ccc12 [Example 2, (2S,3R,4R,5R)-2-(4-(Dimethylamino)pyrrolo[1,2-f][1,2,4]triazin-7-yl)-5-(hydroxymethyl)-3-methyltetrahydrofuran-3,4-diol]	181 °C
C=Cc1cc([C@@H]2O[C@H](CO)[C@@H](O)[C@@]2(C)O)n2ncnc(N)c12 [Example 4, (2S,3R,4R,5R)-2-(4-Amino-5-vinylpyrrolo[1,2-f][1,2,4]triazin-7-yl)-5-(hydroxymethyl)-3-methyltetrahydrofuran-3,4-diol]	128 to 131 °C
